Source: US8304410B2, “Pyrrole compounds as inhibitors of mycobacteria, synthesis thereof and intermediates thereto” (priority 2007, dated 2012)
≈ marks a conversion by molar mass, not a printed value.

Legend:
Type in all cases: cell-based
[1] = test system: M. tuberculosis INH-R; assay: microbe, parasite or virus in culture; conditions: for MIC: Mycobacterium tuberculosis, read-out: M. tuberculosis INH-R MIC; for M. tuberculosis INH-R MIC: isoniazid-resistant mycobacteria
[2] = test system: M. tuberculosis RMP-R; assay: microbe, parasite or virus in culture; conditions: for MIC: Mycobacterium tuberculosis, read-out: M. tuberculosis RMP-R (Rif-R) MIC; for M. tuberculosis RMP-R (Rif-R) MIC: rifampicin-resistant mycobacteria
[3] = test system: M. tuberculosis PZA-R; conditions: pirazinamide-resistant mycobacteria
[4] = test system: M. tuberculosis SM-R; conditions: streptomycin-resistant mycobacteria

Structure (SMILES) | MIC [1] | M. tuberculosis INH-R MIC [1] | MIC [2] | M. tuberculosis RMP-R (Rif-R) MIC [2] | PZA-R MIC [3] | SM-R MIC [4]
CSc1ccc(-c2cc(CN3CCSCC3)c(C)n2-c2ccc(F)cc2)cc1 [Compound 3a, N-(4-fluorophenyl)-2-methyl-3-thiomorpholinomethyl-5-(4-methylsulfanylphenyl)pyrrole] | > 16 µg/mL | >16 µg/mL | 0.25 µg/mL (≈ 0.606 µM) | – | – | –
CSc1ccc(-c2cc(CN3CCSCC3)c(C)n2-c2ccc(C)cc2)cc1 [Compound 3b] | – | 16 µg/mL | – | 0.25 µg/mL | 0.5 µg/mL | 0.25 µg/mL
CCc1ccc(-n2c(-c3ccc(SC)cc3)cc(CN3CCSCC3)c2C)cc1 [Compound 3c] | – | 16 µg/mL | – | 0.25 µg/mL | 0.25 µg/mL | 0.25 µg/mL
CCCc1ccc(-n2c(-c3ccc(SC)cc3)cc(CN3CCSCC3)c2C)cc1 [Compound 3d] | – | 8 µg/mL | – | 0.5 µg/mL | 0.5 µg/mL | 0.25 µg/mL
CSc1ccc(-c2cc(CN3CCSCC3)c(C)n2-c2ccc(C(C)C)cc2)cc1 [Compound 3e] | – | 16 µg/mL | – | 1 µg/mL | 1 µg/mL | 0.125 µg/mL
CSc1ccc(-c2cc(CN3CCN(C)CC3)c(C)n2-c2ccc(F)cc2)cc1 [Compound 3f] | – | 8 µg/mL | – | 2 µg/mL | 2 µg/mL | 1 µg/mL
CSc1ccc(-c2cc(CN3CCOCC3)c(C)n2-c2ccc(F)cc2)cc1 [Compound 3h] | – | >16 µg/mL | – | 2 µg/mL | 0.5 µg/mL | 0.25 µg/mL
NNC(=O)c1ccncc1 [Isoniazid, INH, Isoniazid, reference compound] | > 64 µg/mL | – | 0.25 µg/mL (≈ 1.82 µM) | – | – | –
CO[C@H]1/C=C/O[C@@]2(C)Oc3c(C)c(O)c4c(O)c(c(/C=N/N5CCN(C)CC5)c(O)c4c3C2=O)NC(=O)/C(C)=C\C=C\[C@H](C)[C@H](O)[C@@H](C)[C@@H](O)[C@@H](C)[C@H](OC(C)=O)[C@@H]1C [Rifampicin, RIF, Rifampicin] | 0.8 µg/mL (≈ 0.972 µM) | – | > 64 µg/mL | – | – | –
[H]/N=C(/N)N[C@H]1[C@H](O)[C@@H](O)[C@H](O[C@@H]2O[C@@H](C)[C@](O)(C=O)[C@H]2O[C@@H]2O[C@@H](CO)[C@H](O)[C@@H](O)[C@@H]2NC)[C@@H](N/C(N)=N\[H])[C@@H]1O [Streptomycin, SM, Streptomycin, reference compound] | 0.5 µg/mL (≈ 0.86 µM) | – | 0.5 µg/mL (≈ 0.86 µM) | – | – | –
